Where two headings read alike, the source gives them in different places.
Legend:
Assay in all cases: biochemical
Parameters in all cases: Reaction Biology 371-kinase panel at Km ATP, per cent enzyme activity relative to DMSO, single dose in duplicate
ABL1 = ABL1 (Homo sapiens, UniProt P00519); conditions: duplicate measurements, Km ATP
Outline: (§1)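 Activity of each kinase, normalised to DMSO-treated controls, served as the read-out. The inhibitor was tested at 300 nM against 371 kinases in vitro. Curves fitted by variable-slope sigmoidal dose-response, constrained to a bottom of 0, gave IC50.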

CDK18/cyclin Y (PCTK3) = CDK18/cyclin Y (PCTK3) (Homo sapiens, UniProt Q07002); conditions: duplicate measurements, Km ATP
Outline: as §1

CDK2/cyclin E2 = CDK2/cyclin E2 (Homo sapiens, UniProt P24941); conditions: duplicate measurements, Km ATP
Outline: as §1

CDK5/P25 = target: T1, CDK5/P25 (Homo sapiens, UniProt Q00535); conditions: duplicate measurements, Km ATP
T1 construct: p25
Outline: as §1

CK1epsilon = target: T2, CK1epsilon (Homo sapiens, UniProt P49674); conditions: duplicate measurements, Km ATP
T2 construct: gene CSNK1E
Outline: as §1

FLT4/VEGFR3 = FLT4/VEGFR3 (Homo sapiens, UniProt P35916); conditions: duplicate measurements, Km ATP
Outline: as §1

HIPK2 = HIPK2 (Homo sapiens, UniProt Q9H2X6); conditions: duplicate measurements, Km ATP
Outline: as §1

IR = target: T3, IR (Homo sapiens, UniProt P06213); conditions: duplicate measurements, Km ATP
T3 construct: gene INSR
Outline: as §1

LYN B = target: T4, LYN B (Homo sapiens, UniProt P07948); conditions: duplicate measurements, Km ATP
T4 construct: isoform B
Outline: as §1

P38b/MAPK11 = P38b/MAPK11 (Homo sapiens, UniProt Q15759); conditions: duplicate measurements, Km ATP
Outline: as §1

PKCmu/PRKD1 = PKCmu/PRKD1 (Homo sapiens, UniProt Q15139); conditions: duplicate measurements, Km ATP
Outline: as §1

RIPK5 = target: T5, RIPK5 (Homo sapiens, UniProt Q6XUX3); conditions: duplicate measurements, Km ATP
T5 construct: gene DSTYK
Outline: as §1

TEC = TEC (Homo sapiens, UniProt P42680); conditions: duplicate measurements, Km ATP
Outline: as §1

TESK1 = TESK1 (Homo sapiens, UniProt Q15569); conditions: duplicate measurements, Km ATP; read-out: % Enzyme Activity (relative to DMSO controls) / TP-0005801 (0.3µM) / Data 1
Outline: as §1

TNK1 = target: T6, TNK1 (Homo sapiens, UniProt Q13470); conditions: duplicate measurements, Km ATP
T6 sequence (Q13470 1-666): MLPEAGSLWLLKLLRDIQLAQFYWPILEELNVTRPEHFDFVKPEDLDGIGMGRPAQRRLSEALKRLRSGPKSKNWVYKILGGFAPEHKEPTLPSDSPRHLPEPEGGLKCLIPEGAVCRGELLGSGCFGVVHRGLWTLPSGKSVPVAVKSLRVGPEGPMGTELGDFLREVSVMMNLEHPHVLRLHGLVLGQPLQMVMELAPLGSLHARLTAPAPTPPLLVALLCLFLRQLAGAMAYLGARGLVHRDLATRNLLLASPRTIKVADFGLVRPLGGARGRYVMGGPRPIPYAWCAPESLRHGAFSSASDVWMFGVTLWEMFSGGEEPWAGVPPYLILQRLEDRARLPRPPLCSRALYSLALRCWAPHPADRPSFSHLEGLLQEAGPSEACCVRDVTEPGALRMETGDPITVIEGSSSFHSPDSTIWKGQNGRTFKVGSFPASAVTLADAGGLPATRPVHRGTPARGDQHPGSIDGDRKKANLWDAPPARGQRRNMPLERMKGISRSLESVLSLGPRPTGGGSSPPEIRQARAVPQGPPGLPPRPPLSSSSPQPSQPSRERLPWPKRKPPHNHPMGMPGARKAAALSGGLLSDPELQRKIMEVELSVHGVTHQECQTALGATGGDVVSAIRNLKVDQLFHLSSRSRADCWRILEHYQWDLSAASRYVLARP
Outline: as §1

[1] = read-out: % Enzyme Activity (relative to DMSO controls) / TP-0005801 (0.3µM) / Data 1
[2] = read-out: % Enzyme Activity (relative to DMSO controls) / TP-0005801 (0.3µM) / Data 2

Sequence of TEC (P42680 whole entry): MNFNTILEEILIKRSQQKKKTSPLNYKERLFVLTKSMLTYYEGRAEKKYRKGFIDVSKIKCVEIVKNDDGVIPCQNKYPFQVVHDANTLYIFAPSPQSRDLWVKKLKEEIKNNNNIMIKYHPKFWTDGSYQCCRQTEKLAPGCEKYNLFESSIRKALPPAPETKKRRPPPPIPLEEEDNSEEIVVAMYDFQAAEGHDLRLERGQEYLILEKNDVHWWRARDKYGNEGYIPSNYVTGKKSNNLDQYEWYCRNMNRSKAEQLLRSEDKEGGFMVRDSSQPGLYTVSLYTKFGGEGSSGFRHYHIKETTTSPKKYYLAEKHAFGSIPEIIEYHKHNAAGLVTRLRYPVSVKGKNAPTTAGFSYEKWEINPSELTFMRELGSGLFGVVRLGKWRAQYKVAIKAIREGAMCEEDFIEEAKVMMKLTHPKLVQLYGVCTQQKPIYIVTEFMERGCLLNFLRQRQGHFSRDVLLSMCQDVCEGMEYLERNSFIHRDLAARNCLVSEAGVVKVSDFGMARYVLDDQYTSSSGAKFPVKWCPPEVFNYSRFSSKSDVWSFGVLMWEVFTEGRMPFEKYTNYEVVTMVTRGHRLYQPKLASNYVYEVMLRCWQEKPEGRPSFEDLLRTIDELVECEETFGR
Sequence of PKCmu/PRKD1 (Q15139 whole entry): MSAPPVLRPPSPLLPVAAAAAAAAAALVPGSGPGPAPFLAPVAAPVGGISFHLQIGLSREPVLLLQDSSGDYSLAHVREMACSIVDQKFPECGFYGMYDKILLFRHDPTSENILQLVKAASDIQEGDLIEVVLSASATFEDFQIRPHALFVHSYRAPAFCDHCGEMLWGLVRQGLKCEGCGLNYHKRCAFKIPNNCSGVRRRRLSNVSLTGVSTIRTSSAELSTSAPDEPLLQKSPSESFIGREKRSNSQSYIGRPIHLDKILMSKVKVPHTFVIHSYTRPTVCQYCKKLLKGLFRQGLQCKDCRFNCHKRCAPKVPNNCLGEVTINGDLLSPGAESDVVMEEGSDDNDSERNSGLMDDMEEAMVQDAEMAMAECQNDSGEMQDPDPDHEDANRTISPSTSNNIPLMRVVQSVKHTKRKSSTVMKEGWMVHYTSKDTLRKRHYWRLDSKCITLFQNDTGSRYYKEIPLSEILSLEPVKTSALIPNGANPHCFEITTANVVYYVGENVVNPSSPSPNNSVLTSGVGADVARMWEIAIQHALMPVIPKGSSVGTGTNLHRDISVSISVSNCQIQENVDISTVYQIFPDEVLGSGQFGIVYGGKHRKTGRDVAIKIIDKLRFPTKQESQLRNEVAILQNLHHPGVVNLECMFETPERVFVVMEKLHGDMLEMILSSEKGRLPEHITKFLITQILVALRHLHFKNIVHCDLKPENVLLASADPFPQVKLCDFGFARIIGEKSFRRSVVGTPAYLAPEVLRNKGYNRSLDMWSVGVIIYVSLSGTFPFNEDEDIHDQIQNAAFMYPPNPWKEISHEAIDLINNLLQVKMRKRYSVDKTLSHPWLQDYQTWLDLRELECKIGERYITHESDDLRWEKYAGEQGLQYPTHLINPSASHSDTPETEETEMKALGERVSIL
Sequence of CDK18/cyclin Y (PCTK3) (Q07002 whole entry): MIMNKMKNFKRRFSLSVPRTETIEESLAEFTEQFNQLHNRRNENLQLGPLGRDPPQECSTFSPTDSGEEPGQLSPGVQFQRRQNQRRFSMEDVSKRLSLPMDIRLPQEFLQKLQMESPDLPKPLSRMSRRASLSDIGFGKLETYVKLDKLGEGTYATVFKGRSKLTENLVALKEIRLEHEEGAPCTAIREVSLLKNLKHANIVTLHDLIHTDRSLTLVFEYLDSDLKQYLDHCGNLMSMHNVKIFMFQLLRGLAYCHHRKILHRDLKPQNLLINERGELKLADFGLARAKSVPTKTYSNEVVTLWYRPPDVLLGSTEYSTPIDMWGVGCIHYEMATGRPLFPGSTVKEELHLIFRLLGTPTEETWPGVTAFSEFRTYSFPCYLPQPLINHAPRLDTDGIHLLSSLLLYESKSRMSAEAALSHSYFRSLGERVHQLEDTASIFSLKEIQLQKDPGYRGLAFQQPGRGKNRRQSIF
Sequence of CDK18/cyclin Y (PCTK3) (Q8ND76 whole entry partner): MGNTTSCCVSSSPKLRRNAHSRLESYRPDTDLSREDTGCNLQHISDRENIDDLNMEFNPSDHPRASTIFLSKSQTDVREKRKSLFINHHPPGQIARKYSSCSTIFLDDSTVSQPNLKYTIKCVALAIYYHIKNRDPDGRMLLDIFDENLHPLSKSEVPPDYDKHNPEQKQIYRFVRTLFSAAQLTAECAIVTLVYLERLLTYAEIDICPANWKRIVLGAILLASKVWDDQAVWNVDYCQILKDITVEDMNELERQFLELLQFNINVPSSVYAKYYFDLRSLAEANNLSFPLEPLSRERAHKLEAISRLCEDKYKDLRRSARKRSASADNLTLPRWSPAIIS
T5 sequence (Q6XUX3 whole entry): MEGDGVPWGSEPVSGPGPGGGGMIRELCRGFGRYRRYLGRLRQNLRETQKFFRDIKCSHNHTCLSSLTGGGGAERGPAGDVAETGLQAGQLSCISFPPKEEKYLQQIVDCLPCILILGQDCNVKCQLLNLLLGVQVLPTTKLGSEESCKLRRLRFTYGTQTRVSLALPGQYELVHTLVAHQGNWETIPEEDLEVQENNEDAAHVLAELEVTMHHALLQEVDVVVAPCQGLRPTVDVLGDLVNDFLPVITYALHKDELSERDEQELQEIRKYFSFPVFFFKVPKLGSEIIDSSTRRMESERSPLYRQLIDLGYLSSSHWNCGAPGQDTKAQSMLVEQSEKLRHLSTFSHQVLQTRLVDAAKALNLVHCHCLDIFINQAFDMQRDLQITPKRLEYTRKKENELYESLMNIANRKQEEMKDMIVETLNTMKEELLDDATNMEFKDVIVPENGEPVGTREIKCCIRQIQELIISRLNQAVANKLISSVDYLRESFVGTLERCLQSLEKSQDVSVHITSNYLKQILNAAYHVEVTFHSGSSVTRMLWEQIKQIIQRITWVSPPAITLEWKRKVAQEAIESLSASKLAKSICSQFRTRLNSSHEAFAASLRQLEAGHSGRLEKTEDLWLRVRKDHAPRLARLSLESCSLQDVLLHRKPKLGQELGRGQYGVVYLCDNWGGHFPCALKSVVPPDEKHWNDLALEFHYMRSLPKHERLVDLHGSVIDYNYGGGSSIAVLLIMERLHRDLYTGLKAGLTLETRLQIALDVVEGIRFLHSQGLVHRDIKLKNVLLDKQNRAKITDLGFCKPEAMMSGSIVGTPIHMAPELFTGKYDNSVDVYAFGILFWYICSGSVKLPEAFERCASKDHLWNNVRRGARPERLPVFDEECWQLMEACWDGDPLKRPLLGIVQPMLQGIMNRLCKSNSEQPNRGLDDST
Sequence of P38b/MAPK11 (Q15759 whole entry): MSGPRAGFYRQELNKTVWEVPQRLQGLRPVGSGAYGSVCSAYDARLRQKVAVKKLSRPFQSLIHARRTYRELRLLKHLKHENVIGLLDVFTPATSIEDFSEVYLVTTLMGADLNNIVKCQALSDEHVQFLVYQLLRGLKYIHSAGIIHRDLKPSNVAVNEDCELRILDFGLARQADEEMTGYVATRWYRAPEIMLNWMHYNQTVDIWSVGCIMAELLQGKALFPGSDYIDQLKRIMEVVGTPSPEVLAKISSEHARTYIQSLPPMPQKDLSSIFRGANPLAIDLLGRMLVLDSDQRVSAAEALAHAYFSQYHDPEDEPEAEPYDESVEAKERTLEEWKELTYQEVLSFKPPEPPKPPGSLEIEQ
T1 sequence (Q00535 whole entry): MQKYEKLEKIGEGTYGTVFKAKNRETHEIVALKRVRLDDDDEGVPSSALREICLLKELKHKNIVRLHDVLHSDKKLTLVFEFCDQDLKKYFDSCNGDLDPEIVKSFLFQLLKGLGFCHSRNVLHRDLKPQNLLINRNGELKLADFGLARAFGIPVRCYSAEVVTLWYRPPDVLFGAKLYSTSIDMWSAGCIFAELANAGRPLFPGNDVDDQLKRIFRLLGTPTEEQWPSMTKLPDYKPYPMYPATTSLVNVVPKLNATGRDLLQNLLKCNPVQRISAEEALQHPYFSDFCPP
T1 sequence (Q15078 whole entry partner): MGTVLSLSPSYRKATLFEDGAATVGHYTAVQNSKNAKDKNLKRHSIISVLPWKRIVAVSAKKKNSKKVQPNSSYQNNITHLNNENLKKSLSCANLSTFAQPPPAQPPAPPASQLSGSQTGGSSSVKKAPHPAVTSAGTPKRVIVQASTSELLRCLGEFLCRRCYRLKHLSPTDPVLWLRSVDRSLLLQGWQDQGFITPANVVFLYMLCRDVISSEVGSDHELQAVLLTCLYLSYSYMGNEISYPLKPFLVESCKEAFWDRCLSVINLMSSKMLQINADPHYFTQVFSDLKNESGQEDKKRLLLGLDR
T4 sequence (P07948 whole entry, canonical isoform): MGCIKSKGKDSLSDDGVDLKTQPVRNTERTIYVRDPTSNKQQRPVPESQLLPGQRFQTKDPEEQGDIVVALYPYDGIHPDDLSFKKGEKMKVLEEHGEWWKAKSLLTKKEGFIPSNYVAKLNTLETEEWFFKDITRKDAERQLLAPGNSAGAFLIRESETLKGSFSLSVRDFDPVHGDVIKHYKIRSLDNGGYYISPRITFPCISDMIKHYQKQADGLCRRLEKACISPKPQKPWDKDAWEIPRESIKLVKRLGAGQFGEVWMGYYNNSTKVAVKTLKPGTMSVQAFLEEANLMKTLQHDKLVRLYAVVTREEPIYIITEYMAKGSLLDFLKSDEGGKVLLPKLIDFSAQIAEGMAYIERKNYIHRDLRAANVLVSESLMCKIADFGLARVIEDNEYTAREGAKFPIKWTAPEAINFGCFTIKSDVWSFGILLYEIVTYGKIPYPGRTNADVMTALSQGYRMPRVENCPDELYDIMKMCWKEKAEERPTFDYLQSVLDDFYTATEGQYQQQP

Structure (SMILES): COc1cc(N2CCN(C)CC2)c(C)cc1Nc1ncc(Br)c(Nc2cccnc2N(C)C)n1 [TP-5801]
- remaining activity at 0.3 µM (ABL1; [1]): 109%
- remaining activity at 0.3 µM (ABL1; [2]): 107%
- remaining activity at 0.3 µM (CDK18/cyclin Y (PCTK3); [1]): 98%
- remaining activity at 0.3 µM (CDK18/cyclin Y (PCTK3); [2]): 94.2%
- remaining activity at 0.3 µM (CDK2/cyclin E2; [1]): 102%
- remaining activity at 0.3 µM (CDK2/cyclin E2; [2]): 101%
- remaining activity at 0.3 µM (CDK5/P25; [1]): 123%
- remaining activity at 0.3 µM (CDK5/P25; [2]): 115%
- remaining activity at 0.3 µM (CK1epsilon; [1]): 96.5%
- remaining activity at 0.3 µM (CK1epsilon; [2]): 94.7%
- remaining activity at 0.3 µM (FLT4/VEGFR3; [1]): 35.2%
- remaining activity at 0.3 µM (FLT4/VEGFR3; [2]): 35.1%
- remaining activity at 0.3 µM (HIPK2; [1]): 106%
- remaining activity at 0.3 µM (HIPK2; [2]): 96.6%
- remaining activity at 0.3 µM (IR; [1]): 3%
- remaining activity at 0.3 µM (IR; [2]): 2.81%
- remaining activity at 0.3 µM (LYN B; [1]): 99.5%
- remaining activity at 0.3 µM (LYN B; [2]): 99.4%
- remaining activity at 0.3 µM (P38b/MAPK11; [1]): 102%
- remaining activity at 0.3 µM (P38b/MAPK11; [2]): 101%
- remaining activity at 0.3 µM (PKCmu/PRKD1; [1]): 67.7%
- remaining activity at 0.3 µM (PKCmu/PRKD1; [2]): 67.3%
- remaining activity at 0.3 µM (RIPK5; [1]): 108%
- remaining activity at 0.3 µM (RIPK5; [2]): 101%
- remaining activity at 0.3 µM (TEC; [1]): 93.4%
- remaining activity at 0.3 µM (TEC; [2]): 92.2%
- remaining activity at 0.3 µM (TESK1): 102%
- remaining activity at 0.3 µM (TNK1; [1]): 0.98%
- remaining activity at 0.3 µM (TNK1; [2]): 0.83%

Source: paper PMC8429728, “TNK1 is a ubiquitin-binding and 14-3-3-regulated kinase that can be targeted to block tumor growth” (Nature Communications, 2021)
